Experimental data from PubChem BioAssay AID463074 (Broad Institute, 2010).
Activity calls are given as the source filed them.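 The calls were made as follows: active = AC50 no more than tenfold above the top dose tested, or full inhibition at every dose with a flat fit (cut at about 19 µM in these data); inconclusive = flat curve fit with inhibition between 30% and 70%, or poor fit; inactive = AC50 more than tenfold above the top dose tested.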

System: HMLE_sh_eGFP viability, CellTiter-Glo luminescence, 72 h
Assay: cytotoxicity in HMLE control line with eGFP shRNA, dose response, counter-screen for HMLE_sh_ECad selective toxicity project, cell-based, HMLE_sh_eGFP, luminescence (AID 463074);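 also: counterscreen control line to flag general toxicity for the HMLE_sh_ECad screen; potency for loss of viability as luminescence drops below DMSO wells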

Compound	AC50
CCCC/C(C)=C/[C@@H](NP(=O)(c1ccccc1)c1ccccc1)c1ccccc1	6.68 µM
Nc1nnc(SCC(=O)OCC(=O)NC2CCCCC2)s1	> 19.5 µM (inactive)
CN(Cc1cnc2nc(N)nc(N)c2n1)c1ccc(C(=O)N[C@@H](CCC(=O)O)C(=O)O)cc1	< 0.16 µM
CC(C)OC(=O)C(=O)NNc1ccccc1	1.22 µM
Cc1nc([N+](=O)[O-])c(Br)n1CC(=O)c1ccc2ccccc2c1	6.46 µM
Cn1ncc2c(Nc3cccc(Cl)c3)nc(Nc3cccc(Cl)c3)nc21	3.71 µM
Cc1cc(C(=O)NNc2ccc(F)cc2F)no1	1.6 µM
Cc1nc2ccc(Br)cn2c1C(=O)N/N=C\c1ccc(C(C)C)cc1	4.34 µM
COc1ccc2c(c1)C(=O)[C@H](O)[C@@H](c1ccc(OC)c(Br)c1)O2	3.61 µM
C=CCn1c(SCc2c(C)noc2C)nc2ccccc2c1=O	1.78 µM
Cc1noc(C)c1COc1cccc(C(=O)Nc2ccc(OCc3ccccc3)cc2)c1	15.5 µM
O=C1c2ccccc2C2=Nc3ccccc3SC(c3ccc(Cl)cc3)C12 (configuration not stated)	10.6 µM
COC(=O)c1ccc(/C=C/c2c(-c3ccc(OC)cc3)sc3ccccc23)cc1	7.05 µM
COc1cccc(-c2cc(=O)c3cc(NC(=O)c4ccc(N(C)C)cc4)ccc3[nH]2)c1	0.559 µM
c1ccc(C[C@H]2CNCCN2CCCCC2CCCCC2)cc1	6.83 µM
CCC(C)c1ccc(NC(=O)C2CC3CCC2C3)cc1 (configuration not stated)	4.98 µM
COc1ccc(Cn2c3ccc(OC)cc3c3nc4ccccc4nc32)cc1	17.8 µM
O=C(Nc1cccc(S(=O)(=O)N2CCCCC2)c1)c1ccc([N+](=O)[O-])o1	3.83 µM
O=c1[nH]c(=O)n(CCC2=CCCCC2)c(O)c1/C=N/Nc1ccccc1	3.76 µM
O=C(/C=C/c1ccccc1)/C=C/c1ccccc1	2.84 µM
COc1ccc(-c2csc(NC(=S)NC(=O)/C=C/c3ccco3)n2)cc1OC	3.72 µM

Compound	AC50
CCOC(=O)c1cnc(-n2nc(C)cc2C)nc1NNc1nc(-c2ccccc2)cc(-c2ccccc2)n1	3.25 µM
Cn1nnnc1Sc1ncnc2scc(-c3ccc(C(F)(F)F)cc3)c12	3.03 µM
Cc1ccc(-n2nnnc2SC(C(=O)c2c[nH]c3ccccc23)c2ccccc2)cc1 (configuration not stated)	3.21 µM
CC(C)(C)c1ccc(/C=C(\c2nc3ccccc3[nH]2)S(=O)(=O)c2ccccc2)cc1	1.42 µM
COc1ccc(C(CCNCc2ccc(OC(C)C)cc2)c2ccccc2OC)cc1 (configuration not stated)	4.66 µM
CCCc1ccc(-c2cc(NC(=O)CSc3n[nH]c(N)n3)n(-c3ccccc3)n2)cc1	6.1 µM
COc1cc(N/N=C(\C)c2ccc(O)c(C)c2)nc(-c2ccccc2)n1	4.75 µM
Cn1nc([N+](=O)[O-])c(C(C#N)c2ccccn2)c(Cl)c1=O (configuration not stated)	15.3 µM
CC(C)Cc1nc2oc3c(Cl)ncnc3c2c2c1CCC2	3.72 µM
COc1ccc(S[C@@H](CCN2CC[C@H](NC(=O)OCc3ccccc3)CCC2=O)c2ccccc2)cc1	3.12 µM
O=S(=O)(Nc1nc2ccccc2nc1Nc1ccc(N2CCOCC2)cc1)c1cc(Cl)ccc1Cl	4.23 µM
CC1CCN(CCCNC(=O)c2ccc3c(=O)n(Cc4ccc(Cl)cc4)c(=S)[nH]c3c2)CC1	5.33 µM
CC(C)(C)c1ccc(/C=C/C(=O)c2ccc(NC3=NCCCS3)cc2)cc1	6.11 µM
C[C@]12CC[C@H](O)C[C@H]1CC[C@@H]1C2CC[C@]2(C)[C@@H](C3=CC(=O)OC3)[C@@H](O)C[C@]12O (some centres not stated)	1.55 µM
O=C(N/N=C/c1c[nH]c2ccccc12)C1CC1(c1ccccc1)c1ccccc1 (configuration not stated)	7.04 µM
Cc1c(-c2cccc(Cl)c2)nc2ccccc2c1C(=O)OC/C(O)=C(\C#N)c1nc2ccccc2[nH]1	3.12 µM
Cc1ccc(/C=N/NC(=O)c2ccc3c(c2)OCCO3)s1	2.49 µM
O=c1[nH]c(=O)n(C2C[C@H](O)[C@@H](CO)O2)cc1C(F)(F)F (some centres not stated)	0.946 µM
CCc1ccc2c(c1)C1(C(=O)N2)N2CCCC2C(C(=O)c2ccc3ccccc3c2)C12C(=O)Nc1ccccc12 (configuration not stated)	3.69 µM
CC(C)COC(=O)c1cccc2c1-c1ccccc1/C2=N\O	5.27 µM
CC(C)(C)c1ccc(NC(=O)N2CCCN(c3c(Cl)cncc3Cl)CC2)cc1	2.85 µM
